Experimental data taken from patent US20250270507A1, “METHODS FOR PRODUCING CARTILAGE AND BONES” (Murdoch Children's Research Institute, priority 2021, published 2025).

Columns and labels:
Type in all cases: cell-based, human
[1] = tested on: iPSC-derived chondroprogenitors (MCRIi019-A); test: TGFβ3 induction of an articular chondrocyte phenotype; settings: day 48
Description: In some experiments, differentiated chondrocytes were treated with 10 ng/ml TGFβ3 (R&D Systems) for up to 34 days to generate articular cartilage. From day 6, differentiation/maturation continued in APEL2/5% PFHM (with FGF2) for 7 days. From day 13, 10 ng/ml TGFβ3 was added (i.e. FGF2 and TGFβ3) with medium replaced every 2-3 days. At day 20, the pellets were transferred to rotary culture and cultured with 10 ng/ml TGFβ3 (R&D Systems) (and without FGF2) for a further 4 weeks.
(§1) Cultured and in vivo grafted pellet organoids were fixed overnight at 4° C. in Confix (Australian Biostain) neutral-buffered formalin, then […] washed in 70% ethanol, and paraffin-embedded. After fixing, some in vivo grafted pellets were washed in water for 10 minutes then decalcified in 14% EDTA, pH 7.4 at 4° C. for 5 days before embedding. Serial 5 μm sections cut from the pellet centers were mounted on Superfrost Plus slides (Menzel-Gläser) and heated at 55° C. overnight. Sections were treated with xylene to remove the paraffin wax and an ethanol series comprising 100%, 90%, 70%, 50% ethanol then water to rehydrate the sections. Sections were stained with toluidine blue to detect a cartilage proteoglycan matrix or safranin O/fast green for cartilage and bone following standard protocols. Osteogenic pellet sections were also stained with von Kossa to detect mineralization. Images were captured using a Leica DM 2000 LED microscope with Leica Application Suite (LAS) software version 4.9.0 or Zeiss Axio Imager Z2 with Zen 3.1 Blue Edition software.
(§2) Formalin fixed and paraffin-embedded sections were immunostained for collagen II (MAB8887; Sigma-Aldrich; 1:150 dilution), collagen I (LF68; Kerafast ENH018-FP; 1:100), collagen X (Cameron et al., 2015) (1:100), PRG4 (clone 9G3; Merck) (1:100) and Ku80 (Cell Signaling) (1:300). For collagen II staining, antigen retrieval used 2 mg/ml porcine pepsin (Sigma) freshly prepared in 1 M Tris/HCl, pH 2.0 for 30 minutes at 37° C., followed by digestion for 30 minutes at 37° C. with 0.2% hyaluronidase (Sigma-Aldrich) in PBS. Collagen X antigen retrieval involved heating to 60° C. in 10 mM Tris/1 mM EDTA/0.05% Tween-20, pH 9.0 (Tris/EDTA) for 30 min, cooling to room temperature for 30 minutes, followed by hyaluronidase digestion and collagen I and Ku80 staining followed antigen retrieval at 60° C. in Tris/EDTA as above. Sections to be stained with Ku80 were then permeabilized with 0.05% Triton X-100. Sections were blocked with 3% BSA in PBS for 1 hour at room temperature, then incubated with primary antibodies in 1% BSA in PBS for 16 hours at 4° C. Appropriate species specific Alexa Fluor 488 and 594 secondary antibodies (ThermoFisher) were diluted 1:200 in 1% BSA in PBS with 2.5 μg/ml DAPI, and sections incubated for 1 hour at room temperature. Slides were washed with PBS and coverslips mounted using Shandon Immumount (ThermoFisher). Images were captured as described above. For collagen X intracellular colocalization studies sections were treated with 0.2% hyaluronidase at 37° C. for 30 minutes then permeabilized with 0.05% Triton X-100. The collagen X antibody was used at 1:100, 58K (PA1-9000; ThermoFisher) at 1:50, GRP94 (PA5-18534; ThermoFisher) 1:200 and LAMP2 (ab25631; Abcam) 1:50. Images were captured on a Zeiss LSM900 Airyscan 2 confocal microscope with Zen 3.1 Blue Edition software.
For RNAseq, organoids (2-3 pooled) were snap frozen in liquid nitrogen, pulverized using a liquid nitrogen-cooled tissue grinder and RNA extracted with TRIzol, followed by purification using Direct-zol RNA Microprep kit spin columns (Zymo Research) according to the manufacturer's instructions. RNA samples were quality controlled and sequenced at the Translational Genomics Unit, Murdoch Children's Research Institute. Libraries were constructed using Illumina Stranded mRNA Prep kits and sequenced using a NextSeq 500 to obtain ˜20×10^6 75 bp paired-end reads per sample or a NovaSeq 6000 for 150 bp paired-end reads. […]

[2] = tested on: MCRIi018-B hypertrophic organoids; test: Hypertrophic chondrocyte to osteoblast transdifferentiation in vitro
Description: Hypertrophic chondrocytes can transdifferentiate into osteoblasts and osteocytes in vivo (Yang et al., 2014; Zhou et al., 2014). To recapitulate this later stage of endochondral bone formation in vitro, hypertrophic chondrocyte pellets in orbital culture were rinsed in PBS then cultured in DMEM, high glucose, GlutaMAX Supplement, pyruvate (ThermoFisher), 20% FBS (ThermoFisher), 10 mM β-glycerophosphate, 50 μg/ml ascorbic acid 2-phosphate, 50 μg/ml sodium ascorbate, 100 nM dexamethasone (osteogenic differentiation media) for up to three weeks. […] Media was replaced every 2-3 days. […]

MCRIi001-A-2 organoids = test: Osteogenic differentiation conditions in a second iPSC line; settings: osteogenic conditions with a CHIR99021 pulse v osteogenic medium alone
Description: Hypertrophic chondrocytes can transdifferentiate into osteoblasts and osteocytes in vivo (Yang et al., 2014; Zhou et al., 2014). To recapitulate this later stage of endochondral bone formation in vitro, hypertrophic chondrocyte pellets in orbital culture were rinsed in PBS then cultured in DMEM, high glucose, GlutaMAX Supplement, pyruvate (ThermoFisher), 20% FBS (ThermoFisher), 10 mM β-glycerophosphate, 50 μg/ml ascorbic acid 2-phosphate, 50 μg/ml sodium ascorbate, 100 nM dexamethasone (osteogenic differentiation media) for up to three weeks. […] Media was replaced every 2-3 days.
as §1, with “Osteogenic pellet sections were also stained with von Kossa to detect mineralization. Images were captured using a Leica DM 2000 LED microscope with Leica Application Suite (LAS) software version 4.9.0 or Zeiss Axio Imager Z2 with Zen 3.1 Blue Edition software.” left out

[3] = tested on: iPSC-derived sclerotome pellets (MCRIi018-B); test: Sclerotome to chondrocyte differentiation in pellet culture (FGF2 v BMP4); settings: for collagen II extracellular matrix (immunostaining) / collagen X extracellular staining: day 48; for collagen X extracellular staining: static pellets
Description: Sclerotome to chondrocyte differentiation was in APEL2 medium containing 5% Protein Free Hybridoma Medium (PFHM II; Thermo Fisher) and 20 ng/ml FGF2. In some experiments BMP4 (R & D Systems) was included at 20 ng/ml. Pellets were routinely transferred to 6 cm non-adherent dishes (Greiner) at the end of either day 6 or day 20; 15-20 pellets per dish in 5 ml of medium with orbital rotation at 60 rpm. The medium was changed every 2-3 days. From day 20 (after 2 weeks of FGF2 treatment), differentiation/maturation continued in APEL2/5% PFHM with medium replaced every 2-3 days for the duration of the chondrogenic differentiation experiments as indicated. In some experiments pellets were treated with FGF2 for 4 weeks post-sclerotome.
as §1, §2
RNA was extracted from monolayer cultures using TRIzol […] following the manufacturer's instructions. Typically 100-200 ng total RNA was used for cDNA synthesis in a total volume of 20 μl using the QuantiTect® Reverse Transcription kit (Qiagen) according to the manufacturer's instructions. […]

[4] = osteogenic conditions with CHIR, RNAseq
[5] = osteogenic conditions with a CHIR pulse, RNAseq
[6] = 20 ng/ml for 14 days post-sclerotome, qRT-PCR
[7] = 20 ng/ml for 14 days post-sclerotome, static culture, day 34

Molecule: TGFβ3: TGF-beta agonist growth factor (R&D Systems) used at 10 ng/ml
- PRG4 immunostaining ([1]; 10 ng/ml from day 13): High uniform PRG4 immunostaining
- chondrocyte morphology ([1]; 10 ng/ml from day 13): smaller chondrocytes
- collagen II expression (immunostaining) ([1]; 10 ng/ml from day 13): also expressing collagen II
- collagen X (immunostaining) ([1]; 10 ng/ml from day 13): no extracellular collagen X
- ACAN and HAPLN mRNA ([1]; RNAseq): down-regulation
- COL10A1, IBSP, SPP1 and MATN3 mRNA ([1]; RNAseq): among the most downregulated
- COMP mRNA v untreated chondronoids ([1]; RNAseq): not differentially expressed
- ERG transcription factor mRNA ([1]; RNAseq): highly expressed and upregulated
- MEOX1 and MEOX2 mRNA ([1]; RNAseq): highly upregulated
- PRG4, ASPN, CILP and CILP2 mRNA v untreated chondronoids ([1]; RNAseq): strongly upregulated
- downregulation of COL2A1, COL9A1, COL9A2, COL9A3, COL11A1 mRNA v untreated chondronoids ([1]; RNAseq): ≤ 2 fold
- elastic fiber components ELN, LTBP2, TGFBI and MFAP5 mRNA ([1]; RNAseq): among the 20 most highly upregulated genes
- hypertrophy transcription factors MEF2C, RUNX2, SP7 and DLX5 mRNA ([1]; RNAseq): Among the most strongly downregulated

Molecule: Cc1cnc(-c2cnc(NCCNc3ccc(C#N)cn3)nc2-c2ccc(Cl)cc2Cl)[nH]1 [CHIR99021, 6-[[2-[[4-(2,4-Dichlorophenyl)-5-(5-methyl-1H-imidazol-2-yl)-2-pyrimidinyl]amino]ethyl]amino]-3-pyridinecarbonitrile]
- COL1A1 mRNA expression v osteogenic medium alone ([2]; RNAseq): much higher
- bone markers COL3A1, COL5A1 and OMD mRNA v osteogenic medium alone ([2]; RNAseq): more highly expressed
- other cartilage markers (SOX9, COMP, IHH, MATN3, CEBPB, COL11A1, COL11A2, COL9A1, COL9A2, COL9A3) mRNA v osteogenic medium alone ([2]; RNAseq): downregulated more
- COL1A1 upregulation v hypertrophic chondrocytes [2, 4]: 324 fold
- COL1A2 upregulation v hypertrophic chondrocytes [2, 4]: 210 fold
- DMP1 upregulation v hypertrophic chondrocytes [2, 4]: 935 fold
- IBSP upregulation v hypertrophic chondrocytes [2, 4]: 7 fold
- IFITM5 upregulation v hypertrophic chondrocytes [2, 4]: 105 fold
- CCDC3 upregulation v hypertrophic chondrocytes [2, 5]: 121 fold
- FAP upregulation v hypertrophic chondrocytes [2, 5]: 64 fold
- POSTN upregulation v hypertrophic chondrocytes [2, 5]: 54 fold
- SFRP4 upregulation v hypertrophic chondrocytes [2, 5]: 4 fold
- TNC upregulation v hypertrophic chondrocytes [2, 5]: 72 fold
- toluidine blue staining ([2]; osteogenic medium with 7-day pulse then 2 weeks osteogenic medium alone): marked reduction in toluidine blue staining
- μCT calcium phosphate mineral ([2]; three weeks): little μCT attenuation
- von Kossa staining (matrix mineralization) ([2]; three weeks, compared between the two osteogenic conditions): positive von Kossa staining
- aggrecan degradation (toluidine blue) (MCRIi001-A-2 organoids): more extensive

Molecule: FGF2: FGF pathway activator growth factor (PeproTech) used at 20 ng/ml post-sclerotome
- COL2A1 and ACAN gene expression [3, 6]: consistently higher than in BMP4 cultures
- toluidine blue staining of pellets [3, 7]: strong toluidine blue staining throughout
- collagen II extracellular matrix (immunostaining) [3]: extensive and uniform collagen II extracellular matrix
- collagen X extracellular staining [3]: strong
- toluidine blue staining of pellets ([3]; rotary culture from day 6): stained throughout with toluidine blue

B1: BMP4: growth factor (R & D Systems) included at 20 ng/ml in some experiments (protein, UniProt P12644 293-408, looked up)
Bone morphogenetic protein 4: SPKHHSQRARKKNKNCRRHSLYVDFSDVGWNDWIVAPPGYQAFYCHGDCPFPLADHLNSTNHAIVQTLVNSVNSSIPKACCVPTELSAISMLYLDEYDKVVLKNYQEMVVEGCGCR
- COL10A1 gene expression [3, 6]: expressed earlier
- toluidine blue staining of pellets [3, 7]: only isolated areas were toluidine blue positive
- expression of key cartilage genes ([3]; 20 ng/ml for two weeks post-sclerotome, first experiments, data not shown): key cartilage genes were not highly expressed
- collagen II extracellular matrix (immunostaining) [3]: only small foci that were positive for collagen II
- collagen X extracellular staining [3]: only seen in small, localized regions
- maintenance of pellets in rotary culture ([3]; transfer to rotary culture at end of day 6): fragile and could not be maintained in rotary culture
